Laboratory results reported in patent US20240246941A1, “SUBSTITUTED 4-(3-AMINOPROP-1-YL)AMINOQUINOLINE ANALOGS AS MODULATORS OF MELANOMA-ASSOCIATED ANTIGEN 11 UBIQUITIN LIGASE” (ST. JUDE CHILDREN'S RESEARCH HOSPITAL, INC., priority 2020, published 2024).

Molecular target: MAGE-A11:PCF11 (Homo sapiens (Human), UniProt P43364)
Assay: TR-FRET single point screening at 15 μM
Format: binding
Parameters: unit not given here
Method in brief: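 Single-point screen at 15 μM (0.25% DMSO) measuring disruption of GST-MAGEA11 (5 nM) binding to FAM-PCF11_4 peptide (200 nM) detected by Tb-anti-GST (5 nM). Buffer 50 mM Tris pH 7.5, 20 mM MgCl2, 0.1 mg/ml BSA, 1 mM DTT; 90 min at ~25 °C; 520/490 nm ratio converted to % inhibition versus controls.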

[1] = single point TR-FRET screening of quinoline compounds against MAGE-A11:PCF11, 15 μM
[2] = single point TR-FRET screening at 15 μM against MAGE-A11:PCF11

Sequence of MAGE-A11:PCF11 (P43364 218-429): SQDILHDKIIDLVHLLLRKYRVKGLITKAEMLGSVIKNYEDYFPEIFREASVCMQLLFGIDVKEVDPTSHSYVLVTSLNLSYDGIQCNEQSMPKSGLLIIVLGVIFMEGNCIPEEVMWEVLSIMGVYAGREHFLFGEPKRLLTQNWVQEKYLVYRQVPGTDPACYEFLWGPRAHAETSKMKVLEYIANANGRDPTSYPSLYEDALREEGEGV

| Structure (SMILES) | TR-FRET signal [1] | TR-FRET signal [2] |
| --- | --- | --- |
| CCCN(CCCNc1ccnc2cc(Cl)ccc12)Cc1ccc(-c2ccccc2[N+](=O)[O-])o1 [SJ000523044] | 9.266 | – |
| CCCN(CCCNc1ccnc2cc(Cl)ccc12)Cc1ccc(-c2cccc(Cl)c2)o1 [SJ000523045] | 16.23 | – |
| CCCN(CCCNc1ccnc2cc(Cl)ccc12)Cc1c(Cl)ccc(Cl)c1Cl [SJ000523046] | 17.75 | – |
| CCCN(CCCNc1ccnc2cc(Cl)ccc12)Cc1ccc([N+](=O)[O-])o1 [SJ000523047] | 9.575 | – |
| CCCCCCN(CCC)CCCNc1ccnc2cc(Cl)ccc12 [SJ000523048] | 1.317 | – |
| Clc1ccc2c(NCCCNCc3ccncc3)ccnc2c1 [SJ000523049] | 6.077 | – |
| Clc1ccc2c(NCCCNCc3ccccn3)ccnc2c1 [SJ000523050] | 4.744 | – |
| CSCCCNCCCNc1ccnc2cc(Cl)ccc12 [SJ000523051] | 14.97 | – |
| Clc1ccc2c(NCCCNCc3ccsc3)ccnc2c1 [SJ000523052] | 15.25 | – |
| CC(CCNCCCNc1ccnc2cc(Cl)ccc12)c1ccccc1 (stereo not drawn) [SJ000523053] | 19.01 | – |
| CCCCCNCCCNc1ccnc2cc(Cl)ccc12 [SJ000523057] | 25.82 | – |
| Cc1c(CNCCCNc2ccnc3cc(Cl)ccc23)c(=O)n(-c2ccccc2)n1C [SJ000523058] | 5.584 | – |
| O=[N+]([O-])c1ccccc1-c1ccc(CNCCCNc2ccnc3cc(Cl)ccc23)o1 [SJ000523068] | 21.65 | – |
| Clc1cccc(-c2ccc(CNCCCNc3ccnc4cc(Cl)ccc34)o2)c1 [SJ000523069] | 33.51 | – |
| CCCN(CCCNc1ccnc2cc(C(F)(F)F)ccc12)Cc1ccc(F)cc1 [SJ000523070] | 26.44 | – |
| CCCN(CCCNc1ccnc2cc(C(F)(F)F)ccc12)Cc1ccccc1[N+](=O)[O-] [SJ000523071] | −7.745 | – |
| CCCN(CCCNc1ccnc2cc(C(F)(F)F)ccc12)Cc1ccccc1OC [SJ000523072] | 32.61 | – |
| CCCN(CCCNc1ccnc2cc(C(F)(F)F)ccc12)Cc1ccccc1C(=O)O [SJ000523073] | 16.86 | – |
| CCCN(CCCNc1ccnc2cc(C(F)(F)F)ccc12)Cc1cccc2ccccc12 [SJ000523074] | 14.32 | – |
| CCCN(CCCNc1ccnc2cc(C(F)(F)F)ccc12)Cc1ccc2ccccc2c1 [SJ000523075] | 11.39 | – |
| CCCN(CCCNc1ccnc2cc(C(F)(F)F)ccc12)Cc1cccc(C)c1 [SJ000523076] | 20.17 | – |
| CCCN(CCCNc1ccnc2cc(C(F)(F)F)ccc12)Cc1ccc(N(C)C)cc1 [SJ000523077] | 23.71 | – |
| CCCN(CCCNc1ccnc2cc(C(F)(F)F)ccc12)Cc1ccc(Cl)cc1Cl [SJ000523078] | 3.83 | – |
| CCCN(CCCNc1ccnc2cc(C(F)(F)F)ccc12)Cc1ccc(OC)c(OC)c1 [SJ000523079] | 14.66 | – |

| Structure (SMILES) | TR-FRET signal [1] | TR-FRET signal [2] |
| --- | --- | --- |
| CCCN(CCCNc1ccnc2cc(C(F)(F)F)ccc12)CCCc1ccccc1 [SJ000523080] | 28 | – |
| CCCN(CCCNc1ccnc2cc(C(F)(F)F)ccc12)CC(C)CC (stereo not drawn) [SJ000523081] | 22.28 | – |
| CCCN(CCCNc1ccnc2cc(C(F)(F)F)ccc12)Cc1cc(C)ccc1C [SJ000523082] | 21.74 | – |
| CCCCCCN(CCC)CCCNc1ccnc2cc(C(F)(F)F)ccc12 [SJ000523083] | 34.95 | – |
| Cc1cc(C)c(CN2CCC(Nc3ccnc4cc(Cl)ccc34)CC2)c(C)c1 [SJ000523084] | – | 11.75 |
| Clc1ccc2c(NC3CCN(CC4CCCCC4)CC3)ccnc2c1 [SJ000523085] | – | 15.43 |
| CCC(CC)CN1CCC(Nc2ccnc3cc(Cl)ccc23)CC1 [SJ000523086] | – | 9.754 |
| Clc1ccc2c(NC3CCN(Cc4ccc5c(c4)OCO5)CC3)ccnc2c1 [SJ000523087] | – | 7.643 |
| CCCCCN1CCC(Nc2ccnc3cc(Cl)ccc23)CC1 [SJ000523088] | – | 12.17 |
| Fc1ccc(CN2CCC(Nc3ccnc4cc(Cl)ccc34)CC2)cc1F [SJ000523089] | – | −1.958 |
| COc1ccc(CN2CCC(Nc3ccnc4cc(Cl)ccc34)CC2)cc1 [SJ000523090] | – | 23.72 |
| Fc1ccccc1CN1CCC(Nc2ccnc3cc(Cl)ccc23)CC1 [SJ000523091] | – | −0.9977 |
| Fc1cccc(CN2CCC(Nc3ccnc4cc(Cl)ccc34)CC2)c1 [SJ000523092] | – | 6.622 |
| Fc1ccc(CN2CCC(Nc3ccnc4cc(Cl)ccc34)CC2)cc1 [SJ000523093] | – | 10.66 |
| O=[N+]([O-])c1ccccc1CN1CCC(Nc2ccnc3cc(Cl)ccc23)CC1 [SJ000523094] | – | −2.026 |
| O=[N+]([O-])c1cccc(CN2CCC(Nc3ccnc4cc(Cl)ccc34)CC2)c1 [SJ000523095] | – | 0.8927 |
| O=[N+]([O-])c1ccc(CN2CCC(Nc3ccnc4cc(Cl)ccc34)CC2)cc1 [SJ000523096] | – | −4.954 |
| COc1ccccc1CN1CCC(Nc2ccnc3cc(Cl)ccc23)CC1 [SJ000523097] | – | 8.596 |
| O=C(O)c1ccccc1CN1CCC(Nc2ccnc3cc(Cl)ccc23)CC1 [SJ000523098] | – | −2.194 |
| Clc1ccc2c(NC3CCN(Cc4cccc5ccccc45)CC3)ccnc2c1 [SJ000523099] | – | −6.179 |
| Clc1ccc2c(NC3CCN(Cc4ccc5ccccc5c4)CC3)ccnc2c1 [SJ000523100] | – | 4.171 |
| Cc1cccc(CN2CCC(Nc3ccnc4cc(Cl)ccc34)CC2)c1 [SJ000523101] | – | 18.54 |
| CN(C)c1ccc(CN2CCC(Nc3ccnc4cc(Cl)ccc34)CC2)cc1 [SJ000523102] | – | 13.09 |
| COc1ccc(CN2CCC(Nc3ccnc4cc(Cl)ccc34)CC2)cc1OC [SJ000523103] | – | 11.75 |

| Structure (SMILES) | TR-FRET signal [1] | TR-FRET signal [2] |
| --- | --- | --- |
| Clc1ccc2c(NC3CCN(CCCc4ccccc4)CC3)ccnc2c1 [SJ000523104] | – | 20.65 |
| CCC(C)CN1CCC(Nc2ccnc3cc(Cl)ccc23)CC1 (stereo not drawn) [SJ000523105] | – | 11.19 |
| Cc1ccc(C)c(CN2CCC(Nc3ccnc4cc(Cl)ccc34)CC2)c1 [SJ000523106] | – | 18.68 |
| COc1cccc(CN2CCC(Nc3ccnc4cc(Cl)ccc34)CC2)c1 [SJ000523107] | – | 3.149 |
| CCCCCCN1CCC(Nc2ccnc3cc(Cl)ccc23)CC1 [SJ000523108] | – | 29.3 |
| CCCN(CCCNc1c2ccc(Cl)cc2nc2ccc(OC)cc12)CC1CCOC1 (stereo not drawn) [SJ000575149] | −35.94 | – |
| CCCN(CCCNc1c2ccc(Cl)cc2nc2ccc(OC)cc12)CC(C)C [SJ000575150] | −21.37 | – |
| CCCN(CCCCCC(=O)OC)CCCNc1c2ccc(Cl)cc2nc2ccc(OC)cc12 [SJ000575151] | −37.41 | – |
| CCCN(CCCNc1c2ccc(Cl)cc2nc2ccc(OC)cc12)Cc1cccnc1 [SJ000575152] | −23.4 | – |
| CCCN(CCCNc1ccnc2cc(C(F)(F)F)ccc12)Cc1nccn1C [SJ000575170] | 7.124 | – |
| CCCN(CCCNc1ccnc2cc(C(F)(F)F)ccc12)Cc1ccc2[nH]ccc2c1 [SJ000575171] | 32.89 | – |
| CCCN(CCCNc1ccnc2cc(C(F)(F)F)ccc12)Cc1scnc1C [SJ000575179] | 5.164 | – |
| CCCN(CCCNc1ccnc2cc(C(F)(F)F)ccc12)Cc1cccnc1Br [SJ000575180] | 5.164 | – |
| CCCN(CCCNc1ccnc2cc(C(F)(F)F)ccc12)Cc1ncc[nH]1 [SJ000575181] | 9.345 | – |
| CCCN(CCCNc1ccnc2cc(C(F)(F)F)ccc12)Cc1cnn(C)c1 [SJ000575182] | 15.68 | – |
| CCCN(CCCNc1ccnc2cc(C(F)(F)F)ccc12)Cc1nccs1 [SJ000575189] | 8.665 | – |
| CCCN(CCCNc1ccnc2cc(C(F)(F)F)ccc12)CC1CCOC1 (stereo not drawn) [SJ000575190] | 1.787 | – |
| CCCN(CCCCCC(=O)OC)CCCNc1ccnc2cc(C(F)(F)F)ccc12 [SJ000575191] | 5.6 | – |
| Clc1ccc2c(NCCCNCc3ccc[nH]3)ccnc2c1 [SJ000575192] | 52.99 | – |
| Clc1ccc2c(NCCCNCc3ccc(Br)s3)ccnc2c1 [SJ000575193] | 15.34 | – |
| O=C(C[C@H]1CC[C@]2(CC1)OO[C@]1(O2)C2CC3CC(C2)CC1C3)NCCCNc1ccnc2cc(Cl)ccc12 [SJ000578380] | 28.48 | – |
| O=C(C[C@H]1CC[C@]2(CC1)OO[C@]1(O2)C2CC3CC(C2)CC1C3)NCCCCNc1ccnc2cc(Cl)ccc12 [SJ000578384] | – | 25.12 |
| Cc1cc(NC(=O)CN[C@H]2CCN(Cc3ccccc3)C2)c2ccccc2n1 [SJ000832405] | – | 4.364 |
| Cc1cc(NC(=O)CN[C@H]2CCN(Cc3cccc(F)c3)C2)c2ccccc2n1 [SJ000832581] | – | −1.278 |
